Assay: Dynamic Vapor Sorption/Desorption (DVS)
Assay type: physicochemical
Details: FIG. 4

Compound: CC(C)CCC[C@@H](C)[C@H]1CC[C@H]2[C@@H]3CC=C4C[C@@H](OS(=O)(=O)[O-])CC[C@]4(C)[C@H]3CC[C@]12C.[Na+] [Form F, sodium cholesteryl sulfate]
- weight change upon desorption (DVS) (desorption 95% to 5% relative humidity): 20.8%
- weight gain on sorption (DVS) (ramping from 5% to 95% relative humidity, 10% RH increments, nitrogen purge): 23.8%
- DVS sorption profile (onset of weight gain) (ramping from 5% to 95% relative humidity): little weight gain until 55% relative humidity

From patent US20230365619A1, “CRYSTALLINE SODIUM CHOLESTERYL SULFATE” (Durect Corporation, priority 2020, published 2023)
